In ChEMBL document CHEMBL1201862, “PubChem BioAssay data set” (2004):
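Grown in 96-well plates, cells were treated for 48 hours with each compound at five concentrations. Insufficient inhibition: endpoint recorded as highest concentration tested. GI50: concentration for 50% inhibition of growth.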 Activity calls are given as the source filed them. Rule as the data show it: active = GI50 up to about 1.1 µM and inactive = higher.

Key:
Assay in all cases: NCI anticancer screen, dose series, 48 h
HOP-92 = test system: HOP-92
OVCAR-3 = test system: OVCAR-3
UACC-62 = test system: UACC-62
UACC-257 = test system: UACC-257
Malme-3M = test system: Malme-3M
M14 = test system: M14
MDA-MB-435 = test system: MDA-MB-435
MCF7 = test system: MCF7
A498 = test system: A498
HCT-116 = test system: HCT-116
MDA-MB-231 = test system: MDA-MB-231
SNB-19 = test system: SNB-19
T47D = test system: T47D
NCI-H23 = test system: NCI-H23
CAKI-1 = test system: CAKI-1
UO-31 = test system: UO-31
HCT-15 = test system: HCT-15
LOX IMVI = test system: LOX IMVI
KM12 = test system: KM12
BT-549 = test system: BT-549

Row | Structure (SMILES) | GI50 (HOP-92) | GI50 (OVCAR-3) | GI50 (UACC-62) | GI50 (UACC-257) | GI50 (Malme-3M) | GI50 (M14) | GI50 (MDA-MB-435) | GI50 (MCF7) | GI50 (A498) | GI50 (HCT-116) | GI50 (MDA-MB-231) | GI50 (SNB-19) | GI50 (T47D) | GI50 (NCI-H23) | GI50 (CAKI-1) | GI50 (UO-31) | GI50 (HCT-15) [µM] | GI50 (LOX IMVI) | GI50 (KM12) | GI50 (BT-549)
1 | O=[N+]([O-])CC(SCc1ccccc1)c1ccc2c(c1)OCO2 (centres undefined) | 3.79 µM (inactive) | 6.12 µM (inactive) | 9.89 µM (inactive) | 6.79 µM (inactive) | 14.9 µM (inactive) | 5.6 µM (inactive) | 2.5 µM (inactive) | 3.04 µM (inactive) | 6.98 µM (inactive) | 1.69 µM (inactive) | 10.3 µM (inactive) | 14 µM (inactive) | 19.6 µM (inactive) | 7.19 µM (inactive) | 14.2 µM (inactive) | 8.26 µM (inactive) | 3.84 | 1.56 µM (inactive) | 6.84 µM (inactive) | 
2 | CCCCNC(=S)c1ccc(OC(=O)Nc2ccc(Cl)cc2)cc1 |  | 66.5 µM (inactive) | 0.914 µM (active) | 77.4 µM (inactive) | 79.8 µM (inactive) | 9.27 µM (inactive) | 70.1 µM (inactive) | 41.7 µM (inactive) | 85.1 µM (inactive) | 38.4 µM (inactive) |  | > 100 µM (inactive) | 58.6 µM (inactive) | 31.2 µM (inactive) | 18.5 µM (inactive) | 19.7 µM (inactive) | 12.2 | 0.573 µM (active) | 2.75 µM (inactive) | 20.6 µM (inactive)
3 | CC(C)=CCNc1nc(Cl)nc2[nH]cnc12 | 35 µM (inactive) | > 100 µM (inactive) | > 100 µM (inactive) | 27.1 µM (inactive) | 86.9 µM (inactive) | > 100 µM (inactive) | > 100 µM (inactive) | 29.6 µM (inactive) | 44 µM (inactive) | 24.7 µM (inactive) | 21.5 µM (inactive) | 29 µM (inactive) | 92 µM (inactive) | 56.6 µM (inactive) | > 100 µM (inactive) | 37.4 µM (inactive) |  | > 100 µM (inactive) | > 100 µM (inactive) | 
4 | c1ccc2sc(C3(N4CCC5(CC4)OCCO5)CCCCC3)cc2c1 | 25.8 µM (inactive) | > 100 µM (inactive) | > 100 µM (inactive) | 60.1 µM (inactive) | > 100 µM (inactive) | 61.1 µM (inactive) | 58.6 µM (inactive) | 29.4 µM (inactive) | > 100 µM (inactive) | 58.1 µM (inactive) |  | > 100 µM (inactive) | > 100 µM (inactive) | > 100 µM (inactive) | > 100 µM (inactive) | > 100 µM (inactive) | > 100 | > 100 µM (inactive) | 56.4 µM (inactive) | > 100 µM (inactive)
5 | O=C1CCc2nc3ncccc3cc2C1 | > 100 µM (inactive) | 47.2 µM (inactive) |  | > 100 µM (inactive) | > 100 µM (inactive) | > 100 µM (inactive) | 44 µM (inactive) |  | > 100 µM (inactive) | 65.5 µM (inactive) | > 100 µM (inactive) | > 100 µM (inactive) | > 100 µM (inactive) | > 100 µM (inactive) | > 100 µM (inactive) | 79.8 µM (inactive) | 96.4 |  |  | > 100 µM (inactive)
6 | O=C1N=C2SC(=S)N=C(S)N2NC12c1ccccc1-c1ccccc12 | > 10 µM (inactive) |  | > 10 µM (inactive) | 5.68 µM (inactive) | > 10 µM (inactive) | > 10 µM (inactive) |  | 6.81 µM (inactive) | 1.55 µM (inactive) |  | > 10 µM (inactive) |  | 1.38 µM (inactive) | 9.4 µM (inactive) | > 10 µM (inactive) | 6.28 µM (inactive) | > 10 | > 10 µM (inactive) | > 10 µM (inactive) | > 10 µM (inactive)
7 | O=[N+]([O-])C(/C=C(\Cl)[N+](=O)[O-])=C(N1CCCCC1)N1CCCCC1 | > 100 µM (inactive) | 27.5 µM (inactive) | 18.6 µM (inactive) | 25.3 µM (inactive) | 9.44 µM (inactive) | 20.1 µM (inactive) | 16.7 µM (inactive) | 0.631 µM (active) | 41.4 µM (inactive) | 21.7 µM (inactive) | 92 µM (inactive) | > 100 µM (inactive) | 53 µM (inactive) | 32.9 µM (inactive) | > 100 µM (inactive) | 21.3 µM (inactive) | 25.3 | 55.7 µM (inactive) | > 100 µM (inactive) | 
8 | COC(=O)[C@@H]1CN(C(=O)c2ccccc2)C(=O)N1C(=O)OCc1ccccc1 | > 100 µM (inactive) | > 100 µM (inactive) | > 100 µM (inactive) | > 100 µM (inactive) | > 100 µM (inactive) | > 100 µM (inactive) | > 100 µM (inactive) | > 100 µM (inactive) | > 100 µM (inactive) | > 100 µM (inactive) | > 100 µM (inactive) | > 100 µM (inactive) | > 100 µM (inactive) | > 100 µM (inactive) | > 100 µM (inactive) | > 100 µM (inactive) | > 100 | > 100 µM (inactive) | > 100 µM (inactive) | 
